# Experimental data as given in PubChem BioAssay (NCI).
#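 Each compound was tested at five concentrations against cells in 96-well plates for 48 hours. TGI marks complete inhibition of growth.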
# Legend:
# Test in all cases: NCI-60 cell line screen, 48 h
# [1] = system: PC-3 prostate
# [2] = system: HOP-62 NSCLC
# [3] = system: SNB-19 CNS
# [4] = system: COLO 205 colon
# [5] = system: T-47D breast
# [6] = system: OVCAR-3 ovarian
# [7] = system: SF-539 CNS
# [8] = system: DU-145 prostate
# [9] = system: MOLT-4 leukemia
# [10] = system: OVCAR-4 ovarian
SMILES,TGI [1] [µM],TGI [2] [µM],TGI [3] [µM],TGI [4] [µM],TGI [5] [µM],TGI [6] [µM],TGI [7] [µM],TGI [8] [µM],TGI [9] [µM],TGI [10] [µM]
O=S(=O)(O)c1ccc(Nc2ccnc3cc(Cl)ccc23)cc1,> 100,> 100,> 100,> 100,> 100,> 100,> 100,> 100,> 100,> 100
O=C(NCCCCNCCCNC(=O)OCc1ccccc1)OCc1ccccc1,> 100,> 100,> 100,33.8,57.8,> 100,43.1,> 100,73.6,> 100
O=c1oc2ccccc2c(O)c1Cc1cccc(Cc2c(O)c3ccccc3oc2=O)c1,> 100,> 100,> 100,> 100,> 100,> 100,> 100,> 100,> 100,> 100
Cc1nnc2sc(-c3ccc([N+](=O)[O-])o3)nn12,27.9,28.5,35.3,27.5,62.7,25.4,18.2,29.8,13.5,30.7
COc1cc2c(cc1O)CC[C@@H]1C2CC[C@@]2(C)C1CC[C@@H]2O (stereo not given in full),> 100,45.8,> 100,81.3,> 100,7.17,4.2,> 100,32.1,> 100
